Data reported in patent US5264427A, “20-substituted pregnene derivatives and their use as androgen synthesis inhibitors” (priority 1992, dated 1993).
Read-outs that look alike come from different tables or passages of the source.

Experiments:
Assay type in all cases: biochemical
[1] = target: T1, rat testicular 17(alpha)-hydroxylase/C17,20-lyase (Rattus norvegicus, UniProt P11715); experiment: Hydroxylase/lyase assay, rat testicular homogenates, [21-14C]progesterone (Example 4, Table 3); settings: 0.75 h
T1 construct: rat testicular homogenates (prepared from 220-250g adult male Sprague-Dawley rats); from tissue; host or cells: testes of adult male Sprague-Dawley rats, homogenate
T1 sequence (P11715 1-507): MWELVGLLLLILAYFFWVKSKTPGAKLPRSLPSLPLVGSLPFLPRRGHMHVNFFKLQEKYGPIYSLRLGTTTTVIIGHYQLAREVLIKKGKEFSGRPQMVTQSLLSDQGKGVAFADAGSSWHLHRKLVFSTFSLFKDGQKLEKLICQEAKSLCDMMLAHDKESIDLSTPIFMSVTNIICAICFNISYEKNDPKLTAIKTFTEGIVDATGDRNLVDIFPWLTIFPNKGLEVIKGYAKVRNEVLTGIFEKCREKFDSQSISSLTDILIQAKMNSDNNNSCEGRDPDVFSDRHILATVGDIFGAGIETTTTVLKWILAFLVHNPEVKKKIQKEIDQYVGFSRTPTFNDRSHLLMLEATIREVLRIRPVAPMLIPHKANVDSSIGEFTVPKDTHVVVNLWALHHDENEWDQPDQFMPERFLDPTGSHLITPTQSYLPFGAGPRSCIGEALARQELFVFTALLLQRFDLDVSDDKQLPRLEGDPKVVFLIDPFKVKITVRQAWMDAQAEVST
Experimental: The assay was performed by incubation of rat testicular homogenates (prepared from 220-250g adult male Sprague-Dawley rats, approx. 3.5 mg protein) with [21-^14 C]progesterone (40uM, 5×10^4 dpm), NADPH generating system and candidate inhibitors in phosphate buffer (pH 7.4, total volume 500ul) under oxygen for 45 min at 37° C. Two ml of choloroform was added to each tube to stop the reaction. The steriods were extracted with chloroform and the aqueous phase was treated with charcoal. The side chain cleavage product [2-^14 C]acetic acid in the aqueous phase was mixed with 3a70B counting cocktail and counted on the Rack Beta II liquid scintillation counter. The enzyme activity was determined from the conversion of progesterone P4 to [2-^14 C]acetic acid.

17(alpha)-hydroxylase = target: T2, 17(alpha)-hydroxylase (Rattus norvegicus, UniProt P11715); experiment: 17(alpha)-hydroxylase assay, rat testicular microsomes (Example 1, Table 1); settings: rat testicular microsomes, progesterone substrate, 30 min, 37 C; N.I. = no inhibition
T2 construct: approximately 1 mg rat testicular microsomal protein in 450 microliters phosphate buffer; from tissue; host or cells: testes of adult male Sprague-Dawley rats (Charles River), microsomal fraction
T2 sequence (P11715 1-507): T1 sequence (P11715 1-507)
Experimental: (§1) Testes were obtained from 220°-250g adult male Sprague-Dawley rats (Charles River), immediately frozen in liquid nitrogen and stored at -70° C. After thawing in the ice bath, the testes were minced and homogenized in 0.25M sucrose (1:4 w/v), then centrifuged at 12,000×gfor 30 min and the resulting supernatant centrifuged at 105,000×g for one hour. The supernatant was then decanted and the pellet containing the microsomes was resuspended in 0.1M sodium phosphate buffer (pH 7.4) (2.5g wet weight of tissue/ 2 ml buffer). All the above procedures were performed at 4C. The microsomal fraction was stored at -70C. Just before use, microsomes were diluted to the concentration of 1.25 g wet weight of tissue/10 ml phosphate buffer.
(§2) The incubation was stopped by cooling the mixture in an ice bath and adding 2 ml ether to each incubation tube. The ^3 H-labelled steriods (progesterone P4; 17(alpha)-hydroxyprogesterone 170HP4, androstenedione A and testosterone T, 8,000dpm each) were added as recovery markers and the steroids were extracted with ether (2 ml×3). The ether was evaporated with air. Steroid carriers (P4, 17-0HP4, A and T, 4 micrograms each) were added to the extracts which were then applied to thin layer chromatography (TLC) plates for separation of the steroids. After development for 1.5 hours in hexanes/ethyl acetate, 65:35(v/v), the steroids were located by UV (254 nm) absorption, scraped off and eluted into scintillation vials with ether. After evaporating the ether, the steroids were dissolved in counting cocktail and the radioactivity measured. The recovery of steroids calculated from the ^3 H-labelled markers was between 80 to 90 percent and the enzyme activity was determined from the percentage conversion of [4-C^14 ]-progesterone to 170HP4, A and T.
(§3) The purity of each steroid on the TLC was confirmed by two methods. First, the percent conversion of each compound in a half amount of the extract from one incubation were compared after separation of TLC and HPLC. The HPLC procedure has been described in detail previously. The solvent system used was methanol/acetonitrile/water (15.6:36.4:48). The flow rate was 1 ml/min and pressure 2200 psi, the retention time of these steroids was P4 38.3 min, 170HP4 15.93 min, A 14.33 min, and T 11.43 min, respectively. Secondly, after the first separation by TLC in solvent system A (hexane/ethyl acetate 65:35), the eluted steroids were chromatographed in solvent system B (chloroform/acetonitrile, 85:15).
^1 Incubation of [4^14 Cprogesterone (various concentration,
microsome (approximately 1 mg protein) and NADPH generating system was
carried out at 37 C. under O2 for 30 min. The apparent Km for this

C17,20-lyase = target: T3, C17,20-lyase (Rattus norvegicus, UniProt P11715); experiment: C17,20-lyase assay, rat testicular microsomes (Example 1, Table 1); settings: rat testicular microsomes, 17(alpha)-hydroxyprogesterone substrate, 30 min, 37 C; N.I. = no inhibition
T3 construct: approximately 1 mg rat testicular microsomal protein in 450 microliters phosphate buffer; from tissue; host or cells: testes of adult male Sprague-Dawley rats (Charles River), microsomal fraction
T3 sequence (P11715 1-507): T1 sequence (P11715 1-507)
Experimental: as §1
(§4) C^17,20 -Lyase: The procedure for measurement of the C17,20 -lyase was similar to the procedure for the 17(alpha)-hydroxylase, except that the substrate was 17(alpha)-hydroxy-[[1,2,6,7-^3 H]-progesterone (various concentration, 10^5 dpm) and recovery markers were [4-^14 C]-labelled steroids. Carrier steroids (170HP4, A and T) were also added to locate the product areas on the TLC plates. The enzyme activity was determined from the percent conversion of 17(alpha)-hydroxy-[1,2,6,7-3H]-progesterone to A and T.
as §3, with “The flow rate was 1 ml/min and pressure 2200 psi, the retention time of these steroids was P4 38.3 min, 170HP4 15.93 min, A 14.33 min, and T 11.43 min, respectively.” left out

[2] = target: T4, 17(alpha)-hydroxylase/C17,20-lyase (Rattus norvegicus, UniProt P11715); experiment: Hydroxylase/lyase assay, rat testis homogenates, [21-14C]-progesterone side-chain cleavage (Examples 2 and 3, Table 2); settings: progesterone 40 microM, 45 min
T4 construct: with rat testis homogenates (2.7 mg protein in 0.5 ml phosphate buffer); from tissue; host or cells: rat testis homogenate
T4 sequence (P11715 1-507): T1 sequence (P11715 1-507)
Experimental: Compounds I-16 and I-25 were synthesized according to known procedures. The compounds were then assayed for their ability to inhibit the 17(alpha)-hydroxylase/C17,20 -lyase enzyme and the 5(alpha)-reductaseenzyme. The hydroxylase/lyase assay was carried out by incubation of [21-^14 C]-progesterone (40 microM, 70,000 dpm) and candidate inhibitors with rat testis homogenates (2.7 mg protein in 0.5 ml phosphate buffer), NADPH generating system under oxygen for 45 minutes. The enzyme activity was measured according to the conversion of progesterone to the product of C17,20 -side chain cleavage ([2-^14 C]-acetic acid). […] The results were based on the TLC separation.

[3] = target: T5, 17(alpha)-hydroxylase/17,20-lyase enzyme (Rattus norvegicus, UniProt P11715); experiment: 17(alpha)-hydroxylase/17,20-lyase inhibition, rat testicular microsomes (Example 1); settings: result in words
T5 sequence (P11715 1-507): T1 sequence (P11715 1-507)
Experimental: as §1
as §2, with “After development for 1.5 hours in hexanes/ethyl acetate, 65:35(v/v), the steroids were located by UV (254 nm) absorption, scraped off and eluted into scintillation vials with ether.” left out
as §4, with “Carrier steroids (170HP4, A and T) were also added to locate the product areas on the TLC plates.” left out

[4] = [I] = 10 × [S], progesterone 40uM, pH 7.4, 45 min, 37 C, read-out: Inhibition of 17(alpha)-hydroxylase/C17,20-lyase (%), [I] = 10 × [S]
[5] = [I] = [S], progesterone 40uM, pH 7.4, 45 min, 37 C, read-out: Inhibition of 17(alpha)-hydroxylase/C17,20-lyase (%), [I] = [S]
[6] = pH 7.4, read-out: Inhibition of 17(alpha)-hydroxylase/C17,20-lyase (%), [I] = 10 × [S]
[7] = pH 7.4, read-out: Inhibition of 17(alpha)-hydroxylase/C17,20-lyase (%), [I] = [S]

CC(=O)OC1=CC2=CC[C@H]3[C@@H]4CC[C@H]([C@H](C)C#N)[C@@]4(C)CC[C@@H]3[C@@]2(C)CC1 [Compound I-24]
inhibition at 400 µM [1, 4]: 67.2% | inhibition at 40 µM [1, 5]: 33.6%

C#C[C@H]1CC[C@H]2[C@@H]3CC=C4C[C@@H](O)CC[C@]4(C)[C@H]3CC[C@]12C [Compound I-29]
inhibition at 400 µM [1, 6]: 3.84% | inhibition at 40 µM [1, 7]: 8.26%

C[C@@H](N)[C@H]1CC[C@H]2[C@@H]3CC=C4C[C@@H](O)CC[C@]4(C)[C@H]3CC[C@]12C [Compound I-10]
inhibition at 400 µM [1, 6]: 33.8% | inhibition at 40 µM [1, 7]: 8.54%

CC(=NN)[C@H]1CC[C@H]2[C@@H]3CC=C4C[C@@H](O)CC[C@]4(C)[C@H]3CC[C@]12C [Compound I-12]
inhibition at 400 µM [1, 4]: 25.9% | inhibition at 40 µM [1, 5]: 8.55%

CC(=NO)C1=CC[C@H]2[C@@H]3CC=C4C[C@@H](O)CC[C@]4(C)[C@H]3CC[C@]12C [Compound I-5]
inhibition at 400 µM [1, 6]: 51.8% | inhibition at 40 µM [1, 7]: 25.2%

CC(=O)[C@@]12O[C@@H]1C[C@H]1[C@@H]3CCC4=CC(=O)CC[C@]4(C)[C@H]3CC[C@@]12C [Compound I-18]
inhibition at 400 µM [1, 4]: 64.2% | inhibition at 40 µM [1, 5]: 26.5%

C[C@H](C=NN(C)C)[C@H]1CC[C@H]2[C@@H]3CCC4=CC(=O)CC[C@]4(C)[C@H]3CC[C@]12C [Compound I-15, 4-pregnen-3-oxo-20(beta)-carboxaldehyde N,N-dimethyl hydrazone]
inhibition at 400 µM [1, 4]: 52.7% | inhibition at 40 µM [1, 5]: 22.4%

C[C@H](N)[C@H]1CC[C@H]2[C@@H]3CC=C4C[C@@H](O)CC[C@]4(C)[C@H]3CC[C@]12C [Compound I-9]
inhibition at 400 µM [1, 6]: 27.3% | inhibition at 40 µM [1, 7]: 13.6%

C[C@]12CC[C@H]3[C@@H](CC=C4C[C@@H](O)CC[C@@]43C)[C@@H]1CC[C@@H]2[C@]1(C)CO1 [Compound I-7, (20R)-20,21-epoxy-20-methyl-5-pregnen-3(beta)ol]
inhibition at 400 µM [1, 6]: 28.3% | inhibition at 40 µM [1, 7]: 21.6%

CCN(CC)C(=O)[C@H]1CC[C@H]2[C@@H]3CC[C@H]4N(C)C(=O)CC[C@]4(C)[C@H]3CC[C@]12C [Compound 4-MA, N,N-diethyl-4-methyl-3-oxo-4-aza-5(alpha)-androstane-17(beta)-carboxyamide, reference compound]
17(alpha)-hydroxylase Ki (17(alpha)-hydroxylase): N.I | C17,20-lyase Ki (C17,20-lyase): N.I. | % Inhibition of 17(alpha)hydroxylase/lyase, [I] = 10 × [S] [2]: No inhibition | % Inhibition of 17(alpha)hydroxylase/lyase, [I] = [S] [2]: No inhibition | inhibition of the 17(alpha)-hydroxylase/17,20-lyase enzyme [3]: did not show any inhibition

CC(=NO)[C@H]1CC[C@H]2[C@@H]3CC=C4C[C@@H](O)CC[C@]4(C)[C@H]3CC[C@]12C [Compound I-1]
inhibition at 400 µM [1, 6]: 29.2% | inhibition at 40 µM [1, 7]: 15%

CC(=NN(C)C)C1=CC[C@H]2[C@@H]3CC=C4C[C@@H](O)CC[C@]4(C)[C@H]3CC[C@]12C [Compound I-14, 5,16-Pregnadien-3(beta)-ol-20-one N,N-dimethyl hydrazone]
inhibition at 400 µM [1, 4]: 2.34% | inhibition at 40 µM [1, 5]: 10.2%

CC(C#N)=C1CC[C@H]2[C@@H]3CCC4=CC(=O)CC[C@]4(C)[C@H]3CC[C@]12C [Compound I-26, 20-cyano-4,17(20)-pregnadien-3-one]
inhibition at 400 µM [1, 6]: 89.7% | inhibition at 40 µM [1, 7]: 53.5%

C[C@]12CC[C@H]3[C@@H](CC=C4C[C@@H](O)CC[C@@]43C)[C@@H]1CC[C@@H]2[C@@]1(C)CO1 [Compound I-8, (20S)-20,21-epoxy-20-methyl-5-pregnen-3(beta)-ol]
inhibition at 400 µM [1, 6]: 29.4% | inhibition at 40 µM [1, 7]: 16.3%

C=C[C@H]1CC[C@H]2[C@@H]3CC=C4C[C@@H](O)CC[C@]4(C)[C@H]3CC[C@]12C [Compound I-28]
inhibition at 400 µM [1, 6]: 18.3% | inhibition at 40 µM [1, 7]: 13.5%

C[C@]12CCC(=O)C(O)=C1CC[C@@H]1[C@@H]2CC[C@]2(C)C(=O)CC[C@@H]12 [Compound 4-OHA, 4-hydroxy androstenedione, reference compound]
inhibition of the 17(alpha)-hydroxylase/17,20-lyase enzyme [3]: did not show any inhibition

CC(O)(C#N)[C@H]1CC[C@H]2[C@@H]3CCC4=CC(=O)CC[C@]4(C)[C@H]3CC[C@]12C (some centres unmarked) [Compound I-25, 20-cyano-20-hydroxy-4-pregnen-3-one]
% Inhibition of 17(alpha)hydroxylase/lyase, [I] = 10 × [S] [2]: 89.32% | % Inhibition of 17(alpha)hydroxylase/lyase, [I] = [S] [2]: 50.63%

C[C@H](C=O)[C@H]1CC[C@H]2[C@@H]3CCC4=CC(=O)CC[C@]4(C)[C@H]3CC[C@]12C [Compound I-16, 4-pregnen-3-one-20(beta)carboxaldehyde]
% Inhibition of 17(alpha)hydroxylase/lyase, [I] = 10 × [S] [2]: 89.95% | % Inhibition of 17(alpha)hydroxylase/lyase, [I] = [S] [2]: 61.76%
